Drawing on US8802663B2, “Pyrazole oxadiazole derivatives as S1P1 agonists” (Merck Serono SA, priority 2009, dated 2014), this text covers Ki and EC50 for six compounds.

Broadly, the Ki is the dissociation constant of the complex between target and ligand, obtained from inhibition or displacement. The low end stands for tighter binding, the high end for weaker binding. By EC50 is commonly meant the concentration that produces a half-maximal response.

Counter-ions that a name gives are not always drawn.

The target in test [1] is T1, S1P1 (Homo sapiens (Human), UniProt P21453). The test can be described thus: Receptor binding assay, [33P]sphingosine 1-phosphate, membranes from CHO cells expressing S1P1. The note with it: CHO cell membranes, 25 pM [33P]sphingosine 1-phosphate. As to the method:
(§1) Receptor binding assay: Membranes were prepared from CHO cells expressing S1P1 or S1P3 for use in ligand and […] binding studies. Cells were suspended in 50 mM TRIS, pH 7.4, 2 mM EDTA, 250 mM Sucrose (buffer A) and 1× Complete protease inhibitor cocktail (Roche), and disrupted at 4° C. by N2 decompression using a cell disruption bomb (Parr Instrument). Following centrifugation at 1000 RPM for 10 min at 4° C., the supernatant was suspended in buffer A and centrifuged again at 19000 RPM for 60 min at 4° C. The pellet was then suspended in 10 mM HEPES, pH 7.4, 1 mM EDTA, 250 mM Sucrose (Buffer B), and 1× Complete EDTA-free protease inhibitor cocktail and homogenized using a potter. Membranes were flash frozen in liquid N2 and stored at −80° C. [33P]sphingosine 1-phosphate (3000 Ci/mmol; American Radiolabeled Chemicals, Inc.) was added to test compounds in DMSO. Membranes and WGA SPA beads (GE Healthcare) were added to give a final volume of 100 μl in 96-well plates with assay concentrations of 25 pM or 10 pM [33P]sphingosine 1-phosphate (respectively for S1P1 or S1P3), 50 mM HEPES, pH 7.5, 5 mM MgCl2, 100 mM NaCl, 0.4% fatty acid-free BSA, 1-5 μg/well of proteins and 100 μg/well of WGA SPA beads. Binding was performed for 60 min at RT on a shaker and bound radioactivity was measured on a PerkinElmer 1450 MicroBeta counter. Specific binding was calculated by subtracting remaining radioactivity in the presence of 1000-fold excess of unlabeled SIP. Binding data were analyzed using the GraphPad Prism program.

The target in test [2] is T1, S1P1. The test can be described thus: 35S-GTPγS binding, membranes from CHO cells expressing S1P1. The conditions noted are these: CHO cell membranes. It is filed as biochemical. For orientation: GTPγS resists hydrolysis and so accumulates on activated G proteins.
In another test the target is S1P3 (Homo sapiens (Human), UniProt Q99500). The experiment in a line: 35S-GTPγS binding, membranes from CHO cells expressing S1P3. It is filed as biochemical. The note with it: CHO cell membranes. The protocol:
as §1
Measurements of 35S-GTPγS Binding: Membranes (1 to 10 μg protein) prepared as described above, were incubated in 96-well Scintiplates (PerkinElmer) with test compounds diluted in DMSO, in 180 μl of 20 mM HEPES, pH 7.4, 10 mM MgCl2, 2 μg/well Saponin, 0.2% fatty acid free BSA (Assay buffer), 140 mM NaCl and 1.7 μM GDP. The assay was initiated with the addition of 20 μl of 1.5 nM [35S]-GTPγS (1100 Ci/mmol; GE Healthcare) in assay buffer. After 60 min incubation at 30° C. on a shaker, plates were centrifuged for 10 min at 2000 RPM. Supernatant was discarded and membrane bound radioactivity was measured on a PerkinElmer 1450 MicroBeta counter. Triplicate samples were averaged and expressed as % response relative to S1P activation in absence of compound (n=2).

S1P3, sequence (Q99500 whole entry, species assumed): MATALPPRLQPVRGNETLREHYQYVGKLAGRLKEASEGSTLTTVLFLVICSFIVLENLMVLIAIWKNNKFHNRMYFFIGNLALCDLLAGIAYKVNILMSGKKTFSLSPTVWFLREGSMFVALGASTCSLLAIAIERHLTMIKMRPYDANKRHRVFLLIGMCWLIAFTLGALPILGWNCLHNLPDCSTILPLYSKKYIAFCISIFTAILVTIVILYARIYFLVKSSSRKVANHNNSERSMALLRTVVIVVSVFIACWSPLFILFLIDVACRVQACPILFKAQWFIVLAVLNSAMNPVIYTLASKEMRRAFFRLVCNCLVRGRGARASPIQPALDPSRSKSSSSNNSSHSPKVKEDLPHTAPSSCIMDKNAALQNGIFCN
T1 sequence (P21453 whole entry, species assumed): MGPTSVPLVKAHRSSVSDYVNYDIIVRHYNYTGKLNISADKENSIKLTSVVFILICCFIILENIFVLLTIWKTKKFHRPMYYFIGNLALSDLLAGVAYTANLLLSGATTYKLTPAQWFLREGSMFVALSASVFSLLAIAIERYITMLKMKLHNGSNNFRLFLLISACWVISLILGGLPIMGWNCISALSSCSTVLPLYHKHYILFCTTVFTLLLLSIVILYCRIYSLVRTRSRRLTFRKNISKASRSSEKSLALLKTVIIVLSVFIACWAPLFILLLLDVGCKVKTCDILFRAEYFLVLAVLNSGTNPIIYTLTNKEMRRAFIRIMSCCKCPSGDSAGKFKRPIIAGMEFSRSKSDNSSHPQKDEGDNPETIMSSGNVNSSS

Consider `O=C(O)C1CN(Cc2ccc(-c3noc(-c4cnn(C5CCCCC5)c4C4CCOCC4)n3)cc2)C1` [Example 97, 1-(4-(5-(1-cyclohexyl-5-(tetrahydro-2H-pyran-4-yl)-1H-pyrazol-4-yl)-1,2,4-oxadiazol-3-yl)benzyl)azetidine-3-carboxylic acid], for which the Ki on S1P1 [1] was found to be 0.7 nM. The EC50 worked out at 1.4 nM at S1P1 [2] and 138 nM on S1P3.
Take `O=C(O)C1CN(Cc2ccc(-c3noc(-c4cnn(CC5CC5)c4-c4ccncc4)n3)cc2)C1` [Example 101, 1-(4-(5-(1-(cyclopropylmethyl)-5-(pyridin-4-yl)-1H-pyrazol-4-yl)-1,2,4-oxadiazol-3-yl)benzyl)azetidine 3-carboxylic acid, formate]: the Ki on S1P1 [1] was 1.8 nM. Also, the concentration giving a half-maximal response (EC50) on S1P1 [2] turned out to be 12 nM; at S1P3, 1620 nM.
Consider `O=C(O)CCNCc1ccc(-c2noc(-c3cnn(C4CCCCC4)c3C3CCOCC3)n2)cc1` [Example 102, 3-(4-(5-(1-cyclohexyl-5-(tetrahydro-2H-pyran-4-yl)-1H-pyrazol-4-yl)-1,2,4-oxadiazol-3-yl)benzylamino)propanoic acid], for which the Ki on S1P1 [1] amounted to 0.8 nM. Also, the EC50 turned out to be 2.1 nM on S1P1 [2] and 214 nM at S1P3.
Consider `OCc1ccc(-c2noc(-c3cnn(C4CCCCC4)c3C3CCCO3)n2)cc1` (stereo not drawn) [Example 117, (4-(5-(1-cyclohexyl-5-(tetrahydrofuran-2-yl)-1H-pyrazol-4-yl)-1,2,4-oxadiazol-3-yl)phenyl)methanol], for which, at S1P1 [1], the Ki was 2 nM. In addition, the EC50 on S1P1 [2] is 11 nM; on S1P3 it was 622 nM.
The corresponding values for `COCCc1c(-c2nc(-c3ccc(CN4CC(C(=O)O)C4)cc3)no2)cnn1C1CCCCC1` [Example 120, 1-(4-(5-(1-cyclohexyl-5-(2-methoxyethyl)-1H-pyrazol-4-yl)-1,2,4-oxadiazol-3-yl)benzyl)azetidine-3-carboxylic acid] are 0.1 nM, 0.5 nM and 489 nM.
`O=C(O)C1CCN(Cc2ccc(-c3noc(-c4cnn(C5CCCCC5)c4C4CCCO4)n3)cc2)CC1` (stereo not drawn) [Example 125, 1-(4-(5-(1-cyclohexyl-5-(tetrahydrofuran-2-yl)-1H-pyrazol-4-yl)-1,2,4-oxadiazol-3-yl)benzyl)piperidine-4-carboxylic acid] displayed a Ki on S1P1 [1] of 0.6 nM. For the same compound, the figures for the EC50 at S1P1 [2] and on S1P3 were 1.9 nM and 427 nM, respectively.
